Laboratory results reported in ChEMBL document CHEMBL6074620, “Discovery of a triphenylamine-based ligand that targets mitochondrial DNA G-quadruplexes and activates the cGAS-STING immunomodulatory pathway” (Eur J Med Chem, 2024).
Active and inactive are the calls of the source. The calls are words filed in the database; no cut-off is given here.

Tests used:
[1] = system: 4T1; test: Cytotoxicity against mouse 4T1 cells assessed as reduction in cell viability incubated for 24 hrs by CCK-8 assay; assay type: functional, cell-based; details: 4T1, 24 h
[2] = Cytotoxicity against human MCF-10A assessed as cell growth inhibition incubated for 24 hrs by CCK-8 assay; assay type: toxicity, cell-based; details: MCF-10A cells
[3] = system: MDA-MB-231; test: Cytotoxicity against human MDA-MB-231 cells assessed as reduction in cell viability incubated for 24 hrs by CCK-8 assay; assay type: functional, cell-based; details: MDA-MB-231, 24 h
[4] = biological target: Quadruplex DNA; test: Binding affinity to 3-terminal mt6363 DNA (unknown origin) assessed as dissociation constant by TAMRA-labeled G4 quenching assay; assay type: nucleic-acid assay
[5] = biological target: Quadruplex DNA; test: Binding affinity to 5-terminal mt6363 DNA (unknown origin) assessed as dissociation constant by TAMRA-labeled G4 quenching assay; assay type: nucleic-acid assay
[6] = system: Mus musculus; test: Immunostimulatory activity in female BALB/c mouse implanted with mouse 4T1 cells assessed as increase in CD8+ T cells in spleen 2.5 mg/kg, iv by flow cytometry; assay type: functional, organism-based

| SMILES | Kd [4] [µM] | Kd [5] [µM] | IC50 [1] [µM] | IC50 at 24 h [2] [µM] | IC50 [3] [µM] | Activity [6] |
| --- | --- | --- | --- | --- | --- | --- |
| C[n+]1c(/C=C/c2ccc(N(c3ccccc3)c3ccccc3)cc2)ccc2ccccc21 | 5 | 5.5 | 9.6 | 38 | 3.4 |  |
| COc1cccc2c1C(=O)c1c(O)c3c(c(O)c1C2=O)C[C@@](O)(C(=O)CO)C[C@@H]3O[C@H]1C[C@H](N)[C@H](O)[C@H](C)O1 |  |  |  |  |  | Active |
| C[N+]1=C(/C=C/c2ccc(N(c3ccccc3)c3ccccc3)cc2)C(C)(C)c2ccccc21 | 6.3 | 7.3 | 4.8 | 5 | 2.6 |  |
| COc1ccc(N(c2ccc(/C=C/c3ccc4ccccc4[n+]3C)cc2)c2ccc(OC)cc2)cc1 | 3.2 | 9 | 9.9 | 39.4 | 5.4 |  |

Second part, led by results:

| Kd [4] [µM] | Kd [5] [µM] | SMILES | IC50 [1] [µM] | IC50 at 24 h [2] [µM] | IC50 [3] [µM] | Activity [6] |
| --- | --- | --- | --- | --- | --- | --- |
| 1.1 | 1.4 | C[N+]1=C(/C=C/c2ccc(N(c3ccccc3)c3ccccc3)cc2)C(C)(C)c2c1ccc1ccccc21 | 4.3 | 7 | 2.8 |  |
| 2.1 | 4.3 | COc1ccc(N(c2ccc(/C=C/C3=[N+](C)c4ccccc4C3(C)C)cc2)c2ccc(OC)cc2)cc1 | 3.5 | 8.5 | 4 |  |
